The values that follow come from PubChem BioAssay (NCI).

Among the test systems are MALME-3M melanoma; TK-10 renal; DMS 114 small cell lung; MOLT-4 leukemia; SW-620 colon; RPMI-8226 leukemia; KM20L2 colon; OVCAR-4 ovarian; NCI-H226 lung.
Holding throughout (assay): growth of human tumour cells (NCI), 48 h

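Values below derive from 48-hour exposures of cells grown in 96-well plates, with endpoints linearly interpolated between the two concentrations bracketing the appropriate inhibition level. GI50 is the concentration that inhibits growth by half. Definition used: TGI = concentration required for complete inhibition of growth.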

Turning to `COc1ccc(-c2cc(C(=O)Nc3cccc(C(F)(F)F)c3)[nH]c(=S)n2)cc1`, the TGI in the assay on MALME-3M melanoma, in the assay on TK-10 renal, with DMS 114 small cell lung, with MOLT-4 leukemia, with SW-620 colon and in the assay with RPMI-8226 leukemia was > 100 µM throughout. Moreover, the TGI in the assay on KM20L2 colon, in the assay with OVCAR-4 ovarian and with NCI-H226 lung was > 100 µM in each case.
In the case of `O=CC1=CCCC2(C1)OCCO2`, the TGI in the assay with MALME-3M melanoma, in the assay on TK-10 renal, in the assay with DMS 114 small cell lung, with SW-620 colon, in the assay with RPMI-8226 leukemia and in the assay with OVCAR-4 ovarian was > 100 µM throughout.
Consider `N=C(N)/N=C(/C=C/c1ccccc1)CC1OC(=O)c2ccccc21` (stereo not given), for which the TGI with MALME-3M melanoma, with DMS 114 small cell lung, in the assay on MOLT-4 leukemia, with SW-620 colon, with RPMI-8226 leukemia and in the assay on KM20L2 colon was > 100 µM in each case. In addition, the TGI with OVCAR-4 ovarian and in the assay on NCI-H226 lung was > 100 µM in each case.
For `CCOC(C)OCC#CCCBr` (stereo not given), the TGI in the assay with MALME-3M melanoma, in the assay on TK-10 renal, in the assay on DMS 114 small cell lung, in the assay on MOLT-4 leukemia, in the assay with SW-620 colon and in the assay on RPMI-8226 leukemia was > 100 µM throughout. Besides, the TGI in the assay on KM20L2 colon and with OVCAR-4 ovarian was > 100 µM each time.
As to `O=c1cc2n(c(=O)[nH]1)C1OC(C(O)C1O)[C@@H]2CCO` (stereo not given in full), the TGI in the assay with MALME-3M melanoma, in the assay with TK-10 renal, in the assay with DMS 114 small cell lung, in the assay on MOLT-4 leukemia, in the assay on SW-620 colon and with KM20L2 colon was > 100 µM throughout. Further, in the assay with OVCAR-4 ovarian, the TGI is > 100 µM.
Consider `O=[N+]([O-])c1ccccc1S(=O)c1ccccc1` (stereo not given), for which the TGI in the assay with MALME-3M melanoma is > 100 µM; with TK-10 renal, > 100 µM; in the assay on DMS 114 small cell lung, 51.8 µM; in the assay with MOLT-4 leukemia it was > 100 µM; with SW-620 colon it was > 100 µM; in the assay on RPMI-8226 leukemia it was > 100 µM. The TGI with OVCAR-4 ovarian and with NCI-H226 lung was > 100 µM in each case.
As to `Cc1cccc(C)c1NC(=O)CCC(=O)NNC(=O)c1cc(O)c2ccccc2c1`, the TGI was > 100 µM in the assay on MALME-3M melanoma; > 100 µM in the assay with TK-10 renal; 65.2 µM with DMS 114 small cell lung; > 100 µM in the assay on MOLT-4 leukemia; > 100 µM in the assay with SW-620 colon; > 100 µM in the assay with RPMI-8226 leukemia. Further, the TGI in the assay with KM20L2 colon and with NCI-H226 lung was > 100 µM throughout.
Turning to `COC(=O)OCC1OC(N2C(=O)NC(=O)C(I)C2N=[N+]=[N-])CC1OC(=O)OC` (stereo not given), the TGI in the assay on MALME-3M melanoma, in the assay on TK-10 renal, with MOLT-4 leukemia, with SW-620 colon, with RPMI-8226 leukemia and in the assay with KM20L2 colon was > 100 µM throughout. Moreover, the TGI with OVCAR-4 ovarian and with NCI-H226 lung was > 100 µM in each case.
Consider `CN(C)CCC1(C2=CCCC2)CC/C(=C\c2ccc3c(c2)OCO3)C1=O` (stereo not given), for which the TGI with MALME-3M melanoma is 30.1 µM; with TK-10 renal, 29.2 µM; in the assay with DMS 114 small cell lung it was 32.7 µM; with MOLT-4 leukemia it was 31.4 µM; in the assay with SW-620 colon it was 29.9 µM; in the assay on RPMI-8226 leukemia, 73.9 µM. In addition, the TGI is 28.6 µM with KM20L2 colon and 27.1 µM in the assay on OVCAR-4 ovarian.
For `O=C(/C=C/c1ccc(OCCCCCCCCCCOc2ccc(/C=C/C(=O)c3ccc(Cl)cc3)cc2)cc1)c1ccc(Cl)cc1`, the TGI in the assay with MALME-3M melanoma, with TK-10 renal, in the assay with DMS 114 small cell lung, with MOLT-4 leukemia, in the assay with SW-620 colon and in the assay on RPMI-8226 leukemia was > 100 µM in each case. The TGI in the assay on KM20L2 colon and in the assay on NCI-H226 lung was > 100 µM throughout.
For the compound `CN(C)CCNC(=O)c1ccc2ccc3cccnc3c2n1`, the TGI was 28.7 µM in the assay with MALME-3M melanoma; 62.8 µM with TK-10 renal; 25.6 µM in the assay on DMS 114 small cell lung; 32.3 µM with MOLT-4 leukemia; > 100 µM in the assay with SW-620 colon; 72 µM in the assay on KM20L2 colon. The TGI in the assay with OVCAR-4 ovarian was > 69.2 µM; in the assay on NCI-H226 lung it was 39.6 µM.
Regarding `CC(=O)[CH-]C(=O)c1ccccc1.CC(=O)[CH-]C(=O)c1ccccc1.[Nd+3].[OH-].[OH3+]`, the GI50 in the assay on MALME-3M melanoma, in the assay on TK-10 renal, in the assay with MOLT-4 leukemia, in the assay with SW-620 colon, with RPMI-8226 leukemia and in the assay on KM20L2 colon was > 100 µM throughout. Besides, the GI50 in the assay on OVCAR-4 ovarian and with NCI-H226 lung was > 100 µM throughout. For the same compound, the TGI in the assay with MALME-3M melanoma, with TK-10 renal, in the assay on MOLT-4 leukemia, in the assay on SW-620 colon, in the assay with RPMI-8226 leukemia and in the assay on KM20L2 colon was > 100 µM each time. Also, the TGI with OVCAR-4 ovarian and in the assay with NCI-H226 lung was > 100 µM in each case.
On to `COc1cc2c(cc1OC)C1c3ccccc3C(C#N)(C2)N(C(=O)c2ccccc2)C1O` (stereo not given), for which the TGI in the assay with MALME-3M melanoma, with TK-10 renal, with DMS 114 small cell lung, in the assay on MOLT-4 leukemia, with SW-620 colon and in the assay on RPMI-8226 leukemia was > 100 µM throughout. For the same compound, the TGI in the assay on KM20L2 colon and in the assay with NCI-H226 lung was > 100 µM each time.
